Legend:
Experiment in all cases: Thermostability assay
Settings in all cases: for delta Tm / Tm, plus phosphotyrosine: 10 mM phosphotyrosine; for delta Tm: relative to apo Tm; for Tm, plus phosphotyrosine: protein 30 μM in PBS; for Tm: protein 100 μM, peptide five-fold molar excess, phenyl phosphate 8 mM
R387H LNK SH2 domain = target: T1, R387H LNK SH2 domain (Mus musculus, UniProt O09039, R387H); format: binding
T1 construct: DNA encoding the mouse LNK SH2 domain (residues 324–446) and an N-terminal NusA; NusA (N, cleaved yes); made in house; host or cells: E. coli
Procedure: (§1) Using mouse SH2 domain equivalents of these variants we investigated whether the incorporation of these mutations affected protein stability by measuring their melting point (Tm).
(§2) For peptide and phenyl phosphate experiments, proteins were desalted into 100 mM NaCl, 20 mM Tris (pH 8.0), 2 mM TCEP buffer and diluted to 100 μM. Where peptides were used, a five-fold molar excess of peptide was added to each sample, in phenyl phosphate conditions concentration was 8 mM. For experiments were phosphotyrosine, proteins were diluted to 30 μM in PBS and in phosphate conditions, concentration was 10 mM. Ten mcroliter of each sample was transferred into a capillary and measured from 35 to 95 °C using a Tycho N6T (Nanotemper). Data were analyzed in Prism.

R387C LNK SH2 domain = target: T2, R387C LNK SH2 domain (Mus musculus, UniProt O09039, R387C); format: binding
T2 construct: DNA encoding the mouse LNK SH2 domain (residues 324–446) and an N-terminal NusA; NusA (N, cleaved yes); made in house; host or cells: E. coli
Procedure: as §1, §2

WT LNK SH2 domain = target: T3, WT LNK SH2 domain (Mus musculus, UniProt O09039); format: binding
T3 construct: DNA encoding the mouse LNK SH2 domain (residues 324–446) and an N-terminal NusA; NusA (N, cleaved yes); made in house; host or cells: E. coli (tuner (DE3), BL21(DE3) or C43)
Procedure: as §1, §2

V374M LNK SH2 domain = format: binding, mouse
Procedure: as §1, §2

T2 sequence (O09039 324-446 R387C): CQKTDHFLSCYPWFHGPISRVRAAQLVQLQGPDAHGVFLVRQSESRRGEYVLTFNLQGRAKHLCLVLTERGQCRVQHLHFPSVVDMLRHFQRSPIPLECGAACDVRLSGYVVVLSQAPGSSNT
T3 sequence (O09039 324-446): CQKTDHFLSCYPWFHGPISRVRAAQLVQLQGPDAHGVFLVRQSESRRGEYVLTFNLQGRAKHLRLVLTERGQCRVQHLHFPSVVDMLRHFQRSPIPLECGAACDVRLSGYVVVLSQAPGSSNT
T1 sequence (O09039 324-446 R387H): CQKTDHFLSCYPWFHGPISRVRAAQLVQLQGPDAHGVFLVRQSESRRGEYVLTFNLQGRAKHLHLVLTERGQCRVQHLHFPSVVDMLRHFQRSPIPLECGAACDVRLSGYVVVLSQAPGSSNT

N[C@@H](Cc1ccc(OP(=O)(O)O)cc1)C(=O)O [Phosphotyrosine, phosphotyrosine]
delta Tm (R387H LNK SH2 domain; replicate 1): 3.9 °C | delta Tm (R387H LNK SH2 domain; replicate 2): 3.9 °C | delta Tm (R387H LNK SH2 domain; replicate 3): 3.6 °C | delta Tm (R387H LNK SH2 domain; replicate 4): 3.4 °C | delta Tm (R387H LNK SH2 domain; replicate 5): 3.5 °C | Tm, plus phosphotyrosine (R387H LNK SH2 domain; replicate 1): 55.2 °C | Tm, plus phosphotyrosine (R387H LNK SH2 domain; replicate 2): 55.2 °C | Tm, plus phosphotyrosine (R387H LNK SH2 domain; replicate 3): 54.8 °C | Tm, plus phosphotyrosine (R387H LNK SH2 domain; replicate 4): 54.9 °C | Tm, plus phosphotyrosine (R387H LNK SH2 domain; replicate 5): 55 °C | delta Tm (R387C LNK SH2 domain; replicate 1): 5.7 °C | delta Tm (R387C LNK SH2 domain; replicate 2): 6.5 °C | delta Tm (R387C LNK SH2 domain; replicate 3): 6.1 °C | delta Tm (R387C LNK SH2 domain; replicate 4): 6.2 °C | delta Tm (R387C LNK SH2 domain; replicate 5): 6.4 °C | Tm, plus phosphotyrosine (R387C LNK SH2 domain; replicate 1): 56.8 °C | Tm, plus phosphotyrosine (R387C LNK SH2 domain; replicate 2): 57.5 °C | Tm, plus phosphotyrosine (R387C LNK SH2 domain; replicate 3): 57.1 °C | Tm, plus phosphotyrosine (R387C LNK SH2 domain; replicate 4): 57.2 °C | Tm, plus phosphotyrosine (R387C LNK SH2 domain; replicate 5): 57.6 °C | delta Tm (WT LNK SH2 domain; replicate 1): 6.6 °C | delta Tm (WT LNK SH2 domain; replicate 2): 8.1 °C | delta Tm (WT LNK SH2 domain; replicate 3): 7.6 °C | delta Tm (WT LNK SH2 domain; replicate 4): 8.1 °C | Tm, plus phosphotyrosine (WT LNK SH2 domain; replicate 1): 61.1 °C | Tm, plus phosphotyrosine (WT LNK SH2 domain; replicate 2): 61.7 °C | Tm, plus phosphotyrosine (WT LNK SH2 domain; replicate 3): 61.9 °C | Tm, plus phosphotyrosine (WT LNK SH2 domain; replicate 4): 62.5 °C | delta Tm (V374M LNK SH2 domain; replicate 1): 3.1 °C | delta Tm (V374M LNK SH2 domain; replicate 2): 3.2 °C | delta Tm (V374M LNK SH2 domain; replicate 3): 3.3 °C | delta Tm (V374M LNK SH2 domain; replicate 4): 3.2 °C | delta Tm (V374M LNK SH2 domain; replicate 5): 3.4 °C | Tm, plus phosphotyrosine (V374M LNK SH2 domain; replicate 1): 55 °C | Tm, plus phosphotyrosine (V374M LNK SH2 domain; replicate 2): 55.1 °C | Tm, plus phosphotyrosine (V374M LNK SH2 domain; replicate 3): 55.2 °C | Tm, plus phosphotyrosine (V374M LNK SH2 domain; replicate 4): 55.2 °C | Tm, plus phosphotyrosine (V374M LNK SH2 domain; replicate 5): 55.2 °C

O=P(O)(O)Oc1ccccc1 [Phenyl Phos, phenyl phosphate]
Tm (R387H LNK SH2 domain; replicate 1): 55.7 °C | Tm (R387H LNK SH2 domain; replicate 2): 56.0 °C | Tm (R387H LNK SH2 domain; replicate 3): 56.2 °C | Tm (R387C LNK SH2 domain; replicate 1): 56.6 °C | Tm (R387C LNK SH2 domain; replicate 2): 54.9 °C | Tm (R387C LNK SH2 domain; replicate 3): 54.8 °C | Tm (WT LNK SH2 domain; replicate 1): 60.6 °C | Tm (WT LNK SH2 domain; replicate 2): 61.6 °C | Tm (WT LNK SH2 domain; replicate 3): 60.8 °C | Tm (V374M LNK SH2 domain; replicate 1): 54.0 °C | Tm (V374M LNK SH2 domain; replicate 2): 54.3 °C | Tm (V374M LNK SH2 domain; replicate 3): 54.7 °C

From publication PMC8528861, “Structural and functional analysis of target recognition by the lymphocyte adaptor protein LNK” (Nature Communications, 2021)
